Experimental data: US20250288647A1, “ANGIOGENESIS INHIBITING PEPTIDE AND USE THEREOF” (SEOUL NATIONAL UNIVERSITY HOSPITAL, priority 2021, published 2025)

What was measured:
PDGF receptor [1] = experiment: Real-time degree of binding using BLtz instrument (ForteBio); conditions: FIGS. 2A to 2I
Text: (§1) FIG. 2 is a view showing the results of confirming the degree of binding of the peptides using BLtz system according to an exemplary embodiment of the present invention to a VEGF receptor and a PDGF receptor. FIG. 2A is a view showing the results of Peptides 1 to 3, FIG. 2B is a view showing the results of Peptide 8, FIG. 2C is a view showing the results of Peptide 9, FIG. 2D is a view showing the results of Peptide 10, FIG. 2E is a view showing the results of Peptide 11, FIG. 2F is a view showing the results of Peptide 12, FIG. 2G is a view showing the results of Peptide 13, FIG. 2H is a view showing the results of Peptide 14, and FIG. 2I is a view showing the results of Peptide 15.
(§2) In addition, the degree of binding between the peptides and the receptors was confirmed in real time using a BLtz instrument (ForteBio).

VEGF receptor [2] = experiment: as above; conditions: FIGS. 2A to 2I
Text: as §1, §2

PDGF receptor [3] = experiment: Surface plasmon resonance (SPR) binding test, Biacore T200; conditions: PDGF receptor 400 ng/ml, CM5 chip
Method: (§3) It was confirmed that the prepared peptides have binding affinity to VEGF receptors and PDGF receptors using surface plasmon resonance (SPR). More specifically, SPR was performed using a Biacore T200 (GE Healthcare) device and a CM5 chip (GE Healthcare, Cat #. BR-1005-30), and the obtained results were analyzed using BIAevaluation software version 3.0 (GE Healthcare). For a binding test, a concentration of 200 ng/mL was used for the VEGF receptor and a concentration of 400 ng/ml was used for the PDGF receptor.

VEGF receptor [4] = experiment: as above; conditions: VEGF receptor 200 ng/mL, CM5 chip
Method: as §3

[5] = system: mice with oxygen-induced retinopathy; experiment: Oxygen-induced retinopathy mice, intravitreal injection, isolectin staining, area of neovascular tufts; format: in vivo; conditions: 1 μL intravitreal, right eye, 5 days after injection, FIGS. 5 and 6
Method: Two days later, for the prepared mice with retinopathy, 1 μL of phosphate buffer solution, Peptide 1, Peptide 4, and KAI1 protein (CD82), which is known to bind to VEGF and PDGF, were intravitreally injected to the right eye of each of the mice, respectively. Mice were euthanized 5 days after injection and enucleated eyes were prepared. The prepared enucleated eye was immunostained using 5 μg/mL Alexa Fluor 594 isolectin GS-IB4 conjugate (Invitrogen), and then observed using a fluorescence microscope. Thereafter, the area of neovascular tufts was quantified as a percentage of the total retina using Image J (NIH).

CD31 = CD31 staining of cancer tissue sections (angiogenesis in cancer tissue); format: in vivo, NSG mice; conditions: tissue sections of cancer tissue obtained at 14 days, FIG. 4
Method: (§4) As a control, an equal amount of phosphate buffered saline (PBS) was mixed with Matrigel and injected. After the mice were euthanized 14 days later, cancer tissue was obtained and the size of cancer was measured. All animal handling and procedures were performed in accordance with research protocols approved by the Animal Care and Use Committee of Seoul National University Hospital. Thereafter, in all experiments, statistical significance between two groups was confirmed by a Student's t-test, and when P<0.05, it was determined to be statistically significant. Then, the obtained cancer tissue was fixed using a 4% paraformaldehyde solution, embedded using paraffin, and then cut to a thickness of […] to prepare a tissue section. The prepared tissue section was then stained using a CD31 antibody (Abcam) that specifically binds to CD31, a blood vessel-specific gene, and DAPI.

[6] = system: MDA-MB-231 breast cancer cell line; experiment: Anticancer effect: MDA-MB-231 cells mixed with peptide and Matrigel injected subcutaneously, size of cancer; format: in vivo, NSG mice; conditions: 14 days after subcutaneous injection with 2×10^6 MDA-MB-231 cells and Matrigel, compared to PBS control, FIG. 3
Method: as §4

| Molecule | degree of binding to the PDGF receptor (BLtz) (PDGF receptor [1]) | degree of binding to the VEGF receptor (BLtz) (VEGF receptor [2]) | binding to the PDGF receptor (SPR) (PDGF receptor [3]) | binding to the VEGF receptor (SPR) (VEGF receptor [4]) | angiogenesis inhibitory effect in retinopathy (area of neovascular tufts as percentage of total retina) [5] | CD31 antibody staining (fluorescence intensity) in cancer tissue (CD31) | size of cancer [6] |
| --- | --- | --- | --- | --- | --- | --- | --- |
| NHPEDWPVYQEGC [Peptide 15] | stably bound | stably bound | bound strongly | bound strongly |  |  |  |
| NRPEVTAPASCEVKGAAANS [Peptide 4] |  |  |  |  | did not show an angiogenesis inhibitory effect | remarkably high | size of cancer was remarkably increased |
| NRPEVTAPASCEVKGEEDNS [Peptide 2] | weak binding affinity | weak binding affinity | bound weakly | bound weakly |  |  |  |
| NRPEVTYPCSCEVKGAAANS [Peptide 3] | weak binding affinity | weak binding affinity |  |  |  |  |  |
| NRPEVTYPCSCEVKGEEDNS [Peptide 1] | highest binding affinity | highest binding affinity | bound strongly | bound strongly | angiogenesis inhibitory effect similar to that of the comparative group administered the KAI1 protein | almost no portion stained with a CD31 antibody | size of cancer was inhibited compared to the control |
| SFYNWTDNAELMN [Peptide 9] | stably bound | stably bound | bound strongly | bound strongly |  |  |  |
| KAI1 protein: KAI1 protein (CD82), which is known to bind to VEGF and PDGF; comparative group (protein, UniProt P27701 1-267, looked up) CD82 antigen: MGSACIKVTKYFLFLFNLIFFILGAVILGFGVWILADKSSFISVLQTSSSSLRMGAYVFIGVGAVTMLMGFLGCIGAVNEVRCLLGLYFAFLLLILIAQVTAGALFYFNMGKLKQEMGGIVTELIRDYNSSREDSLQDAWDYVQAQVKCCGWVSFYNWTDNAELMNRPEVTYPCSCEVKGEEDNSLSVRKGFCEAPGNRTQSGNHPEDWPVYQEGCMEKVQAWLQENLGIILGVGVGVAIIELLGMVLSICLCRHVHSEDYSKVPKY |  |  |  |  | angiogenesis inhibitory effect |  |  |
